Source: US9334246B2, “Substituted triazines for malaria treatment and chemoprophylaxis” (The United States of America, as represented by the …, priority 2013, dated 2016)
In brackets after ≈: the same amount, converted by molar mass.

What was measured:
Assay type in all cases: cell-based, Plasmodium falciparum
P. falciparum C235 = assay: Malaria SYBR Green Fluorescence Assay, C235 strain
P. falciparum W2 = assay: Malaria SYBR Green Fluorescence Assay, W2 strain
P. falciparum D6 = assay: Malaria SYBR Green Fluorescence Assay, D6 strain
[1] = Plasmodium falciparum, SYBR Green Assay

Compound | C235 (P. falciparum C235; SYBR Green Assay) [ng/mL] | W2 (P. falciparum W2; SYBR Green Assay) [ng/mL] | D6 (P. falciparum D6; SYBR Green Assay) [ng/mL] | C235 (SYBR Green Assay IC50) (P. falciparum C235) [ng/mL] | W2 (SYBR Green Assay IC50) (P. falciparum W2) [ng/mL] | D6 (SYBR Green Assay IC50) (P. falciparum D6) [ng/mL] | also measured
NC1(CNc2nc(-c3cccc(C(F)(F)F)c3)nc(C(Cl)(Cl)Cl)n2)CC1 [Compound 682, NC1(CNC2═NC(═NC(═N2)C2═CC(═CC═C2)C(F)(F)F)C(Cl)(Cl)Cl)CC1] | 82 | 31 | 68 |  |  |  | 
CN1CCC(CNc2nc(-c3ccc(C(C)(C)C)cc3)nc(C(Cl)(Cl)Cl)n2)CC1 [Cmpd 507] |  |  |  | 43 | 39 | 43 | 
COc1ccc(Nc2nc(NCC(C)(C)N)nc(C(Cl)(Cl)Cl)n2)cn1 [Cmpd 403] |  |  |  | 203 | 78 | 134 | 
CCN1CCC(CNc2nc(-c3ccc(Cl)c(Cl)c3)nc(C(Cl)(Cl)Cl)n2)CC1 [Cmpd 257] | 29 | 45 | 54 |  |  |  | 
NC1CCN(CC1)C1═NC(═NC(═N1)C1═CC═C(C═C1)C1═CC═CC═C1)C(Cl)(Cl)Cl [Compound 634] |  |  |  | 88 | 62 | 145 | 
COC1═C2C═CC═CC2═C(C═C1)C1═NC(NC2CCN(CC(C)C)CC2)═NC(═N1)C(Cl)(Cl)Cl [Compound 703] | 338 | 237 | 324 |  |  |  | 
CCN(CC)CCNc1nc(-c2ccccc2-c2ccc(C)cc2)nc(C(Cl)(Cl)Cl)n1 [Cmpd 254] | 462 | 492 | 632 |  |  |  | 
CCN1CCC(CNc2nc(-c3ccccc3)nc(C(Cl)(Cl)Cl)n2)CC1 [Cmpd 410] |  |  |  | 113 | 35 | 103 | 
CN1CCCN(c2nc(-c3ccc(Cl)cc3)nc(C(Cl)(Cl)Cl)n2)CC1 [Cmpd 287] | 232 | 60 | 143 |  |  |  | 
COc1cc(OC)cc(-c2nc(NCC3CCN(C(C)C)CC3)nc(C(Cl)(Cl)Cl)n2)c1 [Cmpd 502] |  |  |  | 52 | 28 | 127 | 
COc1ccc(Nc2nc(NCCC3CCCN3C)nc(C(Cl)(Cl)Cl)n2)cn1 (stereo not drawn) [Cmpd 341] | 10 | 5 | 7 |  |  |  | 
CC(C)(C)c1ccc(cc1)c2nc(NCC(C)(C)CN3CCCCCC3)nc(n2)C(Cl)(Cl)Cl [Compound 737] | 244.2 | 101.3 | 241.3 |  |  |  | 
ClC(Cl)(Cl)c1nc(NCCc2cnccn2)nc(-c2ccccc2)n1 [Cmpd 540] |  |  |  | 213 | 88 | 151 | 
CC(C)CN1CCC(CC1)NC1═NC(═NC(═N1)C1═CC(═CC═C1)C(F)(F)F)C(Cl)(Cl)Cl [Compound 700] | 567 | 368 | 513 |  |  |  | 
CN1CCC(CNc2nc(-c3cccc(C(F)(F)F)c3)nc(C(Cl)(Cl)Cl)n2)CC1 [Cmpd 508] |  |  |  | 22 | 13 | 34 | 
CN1CCCN(c2nc(-c3ccc(F)cc3)nc(C(Cl)(Cl)Cl)n2)CC1 [Cmpd 384] |  |  |  | 59 | 29 | 25 | 
Clc1cc(Cl)cc(-c2nc(N3CCCNCC3)nc(C(Cl)(Cl)Cl)n2)c1 [Cmpd 204] | 214 | 78 | 231 |  |  |  | 
COc1ccc(-c2nc(N3CCCN(C)CC3)nc(C(Cl)(Cl)Cl)n2)cc1 [Cmpd 111] | 232 | 103 | 191 |  |  |  | 
CC(C)N1CCC(CNc2nc(-c3ccccc3[N+](=O)[O-])nc(C(Cl)(Cl)Cl)n2)CC1 [Cmpd 497] |  |  |  | 469 | 176 | 913 | 
CN(C)CCCNc1nc(C(Cl)(Cl)Cl)nc(C(Cl)(Cl)Cl)n1.ClC(Cl)(Cl)c1ccc(C(Cl)(Cl)Cl)cc1 [Cmpd 604] |  |  |  | 628 | 363 | 224 | 
CC(C)(C)c1ccc(-c2nc(NCc3cccnc3)nc(C(Cl)(Cl)Cl)n2)cc1 [Cmpd 158] | 324 | 92 | 260 |  |  |  | 
COc1ncccc1Nc1nc(NCCC2CCCN2C)nc(C(Cl)(Cl)Cl)n1 (stereo not drawn) [Cmpd 346] | 116 | 52 | 62 |  |  |  | 
COc1cccc(-c2nc(NCc3cccnc3)nc(C(Cl)(Cl)Cl)n2)c1 [Cmpd 155] | 614 | 145 | 318 |  |  |  | 

Compound | C235 (P. falciparum C235; SYBR Green Assay) [ng/mL] | W2 (P. falciparum W2; SYBR Green Assay) [ng/mL] | D6 (P. falciparum D6; SYBR Green Assay) [ng/mL] | C235 (SYBR Green Assay IC50) (P. falciparum C235) [ng/mL] | W2 (SYBR Green Assay IC50) (P. falciparum W2) [ng/mL] | D6 (SYBR Green Assay IC50) (P. falciparum D6) [ng/mL] | also measured
Oc1ccc(Nc2nc(NCCN3CCCC3)nc(C(Cl)(Cl)Cl)n2)cc1 [Compound 745, 4-((4-((2-(pyrrolidin-1-yl)ethyl)amino)-6-(trichloromethyl)-1,3,5-triazin-2-yl)amino)phenol] |  |  |  |  |  |  | IC50 (P. falciparum C235; [1]): 0.389 µg/mL (≈ 0.931 µM); IC50 (P. falciparum W2; [1]): 0.08 µg/mL (≈ 0.192 µM); IC50 (P. falciparum D6; [1]): 0.144 µg/mL (≈ 0.345 µM)
COc1ccc(-c2nc(NCC3CCN(C(C)C)CC3)nc(C(Cl)(Cl)Cl)n2)cc1OC [Cmpd 501] |  |  |  | 241 | 94 | 362 | 
CN1CCC(Nc2nc(-c3ccccc3[N+](=O)[O-])nc(C(Cl)(Cl)Cl)n2)CC1 [Cmpd 550] |  |  |  | 35.85 | 20.59 | 48.05 | 
CCN1CCC(CNc2nc(-c3cccc(OC)c3)nc(C(Cl)(Cl)Cl)n2)CC1 [Cmpd 258] | 26 | 29 | 50 |  |  |  | 
CS(═O)(═O)c1ccc(cc1)c2nc(Nc3ccc(cc3)n4cccn4)nc(n2)C(Cl)(Cl)Cl [Compound 689] | 171 | 58 | 94 |  |  |  | 
COc1cc(OC)cc(-c2nc(NCCN3CCCC3)nc(C(Cl)(Cl)Cl)n2)c1 [Cmpd 476] |  |  |  | 35 | 23 | 57 | 
CC(C)(N)CNc1nc(-c2ccc(Cl)cc2)nc(C(Cl)(Cl)Cl)n1 [Cmpd 284] | 18 | 3 | 12 |  |  |  | 
NC1CCN(c2nc(-c3ccccc3)nc(C(Cl)(Cl)Cl)n2)CC1 [Compound 621, NC1CCN(CC1)C1═NC(═NC(═N1)C1═CC═CC═C1)C(Cl)(Cl)Cl] |  |  |  | 319 | 101 | 290 | 
ClC(Cl)(Cl)c1ccc(cc1)c2nc(NCc3ccncc3)nc(n2)C(Cl)(Cl)Cl [Compound 652] |  |  |  | 876 | 301 | 385 | 
CC1(C)C=Cc2cc(-c3nc(NCCc4cnccn4)nc(C(Cl)(Cl)Cl)n3)ccc2O1 [Cmpd 545] |  |  |  | 300 | 147 | 338 | 
CCC(N)(CC)CNc1nc(-c2ccc(F)cc2)nc(C(Cl)(Cl)Cl)n1 [Cmpd 359] |  |  |  | 95 | 51 | 45 | 
CN1CCC(CNc2nc(-c3cc(Cl)cc(Cl)c3)nc(C(Cl)(Cl)Cl)n2)CC1 [Cmpd 514] |  |  |  | 28 | 26 | 79 | 
CC(C)(C)c1ccc(-c2nc(NCCc3ccncc3)nc(C(Cl)(Cl)Cl)n2)cc1 [Cmpd 148] | 671 | 151 | 621 |  |  |  | 
CCN1CCCC(Nc2nc(-c3ccc(N4CCCC4)cc3)nc(C(Cl)(Cl)Cl)n2)C1 (stereo not drawn) [Cmpd 429] |  |  |  | 912 | 607 | 791 | 
CS(=O)(=O)c1ccc(-c2nc(NCCc3cccnc3)nc(C(Cl)(Cl)Cl)n2)cc1 [Cmpd 179] | 680 | 201 | 471 |  |  |  | 
CC(=O)Nc1cccc(Nc2nc(NCCC3CCCN3C)nc(C(Cl)(Cl)Cl)n2)c1 (stereo not drawn) [Cmpd 92] | 164 | 106 | 122 |  |  |  | 
CC(C)N1CCC(CNc2nc(-c3ccc(S(C)(=O)=O)cc3)nc(C(Cl)(Cl)Cl)n2)CC1 [Cmpd 491] |  |  |  | 34 | 18 | 48 | 
CCN(CC)CCNc1nc(Nc2ccc(OC)nc2)nc(C(Cl)(Cl)Cl)n1 [Cmpd 342] | 398 | 149 | 335 |  |  |  | 
CS(=O)(=O)c1ccc(-c2nc(N3CCC(N)CC3)nc(C(Cl)(Cl)Cl)n2)cc1 [Compound 627, CS(═O)(═O)C1═CC═C(C═C1)C1═NC(═NC(═N1)C(Cl)(Cl)Cl)N1CCC(N)CC1] |  |  |  | 48 | 25 | 85 | 
Clc1ccc(-c2nc(NCc3ccccn3)nc(C(Cl)(Cl)Cl)n2)cc1 [Cmpd 141] | 652 | 237 | 556 |  |  |  | 
CC(C)N1CCC(CNc2nc(-c3ccc4ccccc4c3)nc(C(Cl)(Cl)Cl)n2)CC1 [Cmpd 494] |  |  |  | 23 | 18 | 38 | 
CN1CCCN(CC1)C1═NC(NC2═CC═C(OC(F)(F)F)C═C2)═NC(═N1)C(Cl)(Cl)Cl [Compound 658] | 875 | 625 | 701 |  |  |  | 
CCN(CC)CCNc1nc(Cc2cccc(OC)c2)nc(C(Cl)(Cl)Cl)n1 [Cmpd 243] | 128 | 123 | 199 |  |  |  | 
